Marks after values point to notes of the source that are not given here.
How the values were obtained:
[1] = MTT cytotoxicity/reversal assay (Example 1); details: human
Description: The KB-C2 and KB-3-1 were kindly provided by Dr. Akiyama (Kagoshima University, Japan). […] Similarly, the HEK/MRP1 (ABCC1) and HEK/ABCB1 cells were generated by transfecting the HEK293 cells with either the MRP1 expression vector or the ABCB1 expression vector. All of the cell lines were grown in Dulbecco's modified Eagle's medium (DMEM) supplemented with 10% bovine serum, 100 units/ml penicillin, and […] streptomycin in a humidified incubator containing 5% CO2 at 37° C.
The MTT assay was used to assess cytotoxicity. The cultured cells were harvested with trypsin and resuspended in a final concentration of 4×10^3 cells/well for KB-3-1; 7.5×10^3 cells/well for KB-C2; and 8×10^3 for all of the other cell lines used in this study. Cells were seeded evenly in 96-well multiplates. […] After 68 h of incubation, 20 μl of the MTT solution (4 mg/ml) was added to each well, and the plate was further incubated for 4 h at 37° C., allowing viable cells to convert the yellow-colored MTT into dark-blue formazan crystals. Subsequently, the medium was discarded, and 100 μl of DMSO was added into each well to dissolve the formazan crystals, generating purple color. The absorbance was determined at 570 nm by an OPSYS Microplate Reader from DYNEX Technologies, Inc. (Chantilly, Va.). […] The degree of the reversal of multidrug resistance (MDR) was calculated by dividing the IC50 of an anticancer drug, e.g., an antineoplastic or chemotherapeutic drug (agent, compound), in a cell type in the absence of a reversal agent by the IC50 of the anticancer drug in the same cell type in the presence of the reversal agent. The IC50 values were calculated from survival curves using the Bliss method.

KB-3-1 = experiment: MTT cytotoxicity/reversal assay (Example 2); format: cell-based, human; details: alone
Description: (§1) The ABCB1-overexpressing drug resistant cell line KB-V1 (generously provided by Dr. Gottesman, NCI, NIH) was established by a stepwise concentration increase of vinblastine in the culture medium of KB-3-1 cells and subsequently culturing these cells in medium with 1 μg/mL of vinblastine. An ABCC1-overexpressing MDR cell line, KB-CV60, was also derived from KB-3-1 cells and was maintained in medium with 1 μg/mL of cepharanthine and 60 ng/mL of vincristine. Both KB-C2 and KB-CV60 cell lines were kindly provided by Dr. Akiyama (Kagoshima University, Japan). HEK293/pcDNA3.1, ABCG2-482-R5, ABCG2-482-G2, and ABCG2-482-T7 cells were established by selection with 2 mg/mL G418 after transfecting HEK293 with either (1) empty pcDNA3.1 vector or (2) pcDNA3.1 vector containing full length ABCG2 coding either (2a) wild-type arginine (R) or mutant (2b) glycine (G) or (2c) threonine (T) at amino acid position 482, respectively. The wild-type ABCG2-overexpressing drug-resistant cell line MCF-7/Flv1000 was cultured in the medium with 1 μM of flavopiridol. […] Another G482 mutant ABCG2-overexpressing drug resistant cell line, S1-M1-80, was maintained in the medium with 80 μM of mitoxantrone. […] All the cell lines were grown as adherent monolayers in flasks with DMEM (Dulbecco's modified Eagle's medium) culture medium (Hyclone Co.) containing 10% bovine serum at 37° C. in a humidified atmosphere of 5% CO2.
(§2) Cells in 96-well plates were preincubated with or without the reversal agents for 1 h and then different concentrations of chemotherapeutic drugs were added into designated wells. After 68 h of incubation, MTT solution (4 mg/mL) was added to each well, and the plate was further incubated for 4 h, allowing viable cells to change the yellow-colored MTT into dark-blue formazan crystals. Subsequently the medium was discarded, and […] of DMSO was added into each well to dissolve the formazan crystals. The absorbance was determined at 570 nm by an OPSYS MR Microplate Reader from DYNEX Technologies, Inc.

KB-C2 = experiment: MTT cytotoxicity/reversal assay (Example 2); format: cell-based, human; details: alone
Description: as §1, §2

KB-V1 = experiment: MTT cytotoxicity/reversal assay (Example 2); format: cell-based, human; details: alone
Description: as §1, §2

KB-3-1 cells [2] = experiment: [^3H]-paclitaxel accumulation (Example 1); format: cell-based, human; details: 10 μM
Description: (§3) The cells were washed three times with ice-cold PBS, then suspended in fresh medium with or without reversal agents at 37° C. […] Each sample was placed in scintillation fluid and the radioactivity was measured in a Packard TRI-CARB1 1900CA liquid scintillation analyzer from Packard Instrument Company, Inc. (Downers Grove, Ill.).

KB-3-1 cells [3] = experiment: [^3H]-paclitaxel efflux (Example 1); format: cell-based, human; details: absence or presence of vardenafil
Description: as §3

ABCB1 [4] = target: T1, ABCB1 (Homo sapiens, UniProt P08183); experiment: Vi-sensitive ATPase assay of ABCB1 (Example 1); format: biochemical; details: ABCB1 membrane vesicles; read-out: concentration required for 50% stimulation of ATPase activity
T1 construct: made in house; host or cells: High Five insect cells (membrane vesicles / crude membranes)
T1 sequence (P08183 whole entry): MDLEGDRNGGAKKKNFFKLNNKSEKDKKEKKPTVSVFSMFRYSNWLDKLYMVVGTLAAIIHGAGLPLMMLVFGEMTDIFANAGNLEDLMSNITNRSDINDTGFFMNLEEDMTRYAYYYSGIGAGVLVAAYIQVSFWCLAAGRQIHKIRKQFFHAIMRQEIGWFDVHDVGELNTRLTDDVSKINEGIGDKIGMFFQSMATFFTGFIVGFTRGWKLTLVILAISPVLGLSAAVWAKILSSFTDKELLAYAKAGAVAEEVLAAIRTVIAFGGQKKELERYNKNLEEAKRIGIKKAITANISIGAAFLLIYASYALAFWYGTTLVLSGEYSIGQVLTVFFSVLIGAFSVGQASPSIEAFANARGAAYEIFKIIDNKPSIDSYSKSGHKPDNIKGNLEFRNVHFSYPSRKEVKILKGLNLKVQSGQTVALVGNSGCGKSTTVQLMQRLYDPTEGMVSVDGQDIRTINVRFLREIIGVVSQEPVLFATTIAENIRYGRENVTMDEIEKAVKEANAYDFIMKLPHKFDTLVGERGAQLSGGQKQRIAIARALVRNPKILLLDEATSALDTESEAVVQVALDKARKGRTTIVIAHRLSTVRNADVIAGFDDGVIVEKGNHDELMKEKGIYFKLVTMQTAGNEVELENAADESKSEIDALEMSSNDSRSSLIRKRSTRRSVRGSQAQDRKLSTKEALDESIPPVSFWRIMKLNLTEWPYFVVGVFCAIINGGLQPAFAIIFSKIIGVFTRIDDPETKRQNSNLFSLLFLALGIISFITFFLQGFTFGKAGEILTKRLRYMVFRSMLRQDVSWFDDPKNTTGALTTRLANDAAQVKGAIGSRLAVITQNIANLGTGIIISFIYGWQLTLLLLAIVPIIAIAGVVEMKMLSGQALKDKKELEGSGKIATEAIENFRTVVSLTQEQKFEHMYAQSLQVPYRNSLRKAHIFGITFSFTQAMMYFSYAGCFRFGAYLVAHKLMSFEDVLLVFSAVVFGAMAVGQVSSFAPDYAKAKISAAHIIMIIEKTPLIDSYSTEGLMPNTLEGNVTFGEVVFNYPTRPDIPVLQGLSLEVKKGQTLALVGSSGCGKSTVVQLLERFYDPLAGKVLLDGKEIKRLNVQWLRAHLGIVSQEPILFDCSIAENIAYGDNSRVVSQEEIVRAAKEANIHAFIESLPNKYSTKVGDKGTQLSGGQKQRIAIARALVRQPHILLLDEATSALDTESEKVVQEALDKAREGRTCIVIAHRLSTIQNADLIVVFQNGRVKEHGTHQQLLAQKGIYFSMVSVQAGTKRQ
Description: The Vi-sensitive ATPase activity of ABCB1 in membrane vesicles of High Five™ insect cells was measured as follows. The membrane vesicles ([…]) were incubated in ATPase assay buffer (50 mM MES [pH 6.8], 50 mM KCl, 5 mM sodium azide, 2 mM EGTA, 2 mM dithiothreitol, 1 mM ouabain, and 10 mM MgCl2) with or without 0.3 mM orthovanadate (freshly prepared) at 37° C. for 5 min, then incubated with different concentrations of drug at 37° C. for 3 min. The ATPase reaction was started by the addition of 5 mM ATP, and the total volume was 0.1 ml. After incubation at 37° C. for 20 min, the reactions were stopped by the addition of 0.1 ml of 5% SDS solution and vortexed and kept at room temperature. The liberated Pi was measured as described in Ambudkar et al., supra.

ABCB1 [5] = target: T1, ABCB1; experiment: Photoaffinity labeling with [^125I]-IAAP (Example 1); format: binding; details: for IC50: ABCB1 membrane vesicles
Description: The photoaffinity labeling of ABCB1 with [^125I]-IAAP was performed as described in Sauna et al. (2000) Proc. Natl. Acad. Sci. USA 97:2515-20. The membrane vesicles from High Five™ insect cells expressing ABCB1 (50 μg of protein) were incubated at room temperature with different concentrations of drugs in the ATPase assay buffer with [^125I]-IAAP (7 nM) for 5 min under subdued light. […] Subsequently, the samples were run in a 7% Tris-acetate NuPAGE gel on SDS-PAGE; and the gels were dried and exposed to Bio-Max MR film (Eastman Kodak Co., Rochester, N.Y.) at −70° C. for 8-12 h. The radioactivity incorporated into the ABCB1 band was quantified using the STORM 860 PhosphorImager system and ImageQuaNT (Molecular Dynamics, CA).

Row | EC50 (ABCB1 [4]) [µM] | IC50 (ABCB1 [5]) [µM] | inhibition at 5 min, 10 µM (ABCB1 [5]; pH 6.8, probe [125I]-IAAP (7 nM), 10 μM, read-out: inhibition of [^125I]-IAAP photolabeling) [%] | SMILES | IC50 at 68 h [1] [µM] | fold-resistance, paclitaxel (KB-3-1) | fold-resistance, paclitaxel (KB-C2) | fold-resistance, paclitaxel (KB-V1) | effect on paclitaxel accumulation (KB-3-1 cells [2]) | change in effluxed paclitaxel (KB-3-1 cells [3])
1 |  |  |  | CC(=O)O[C@H]1C(=O)[C@@]2(C)[C@H]([C@H](OC(=O)c3ccccc3)[C@]3(O)C[C@H](OC(=O)[C@H](O)[C@@H](NC(=O)c4ccccc4)c4ccccc4)C(C)=C1C3(C)C)[C@]1(OC(C)=O)CO[C@@H]1C[C@@H]2O [Paclitaxel, paclitaxel] | 219 ± 13.2 | (1.0)^c | (788.5) | (1079.6) |  | 
2 | 2.69 ± 0.72 | 0.69 | 90 | CCCc1nc(C)c2c(=O)[nH]c(-c3cc(S(=O)(=O)N4CCN(CC)CC4)ccc3OCC)nn12 [Vardenafil, vardenafil] |  |  |  |  | without altering the levels | No significant change
3 | > 25 | > 50 |  | CN1CC(=O)N2[C@H](c3ccc4c(c3)OCO4)c3[nH]c4ccccc4c3C[C@@H]2C1=O [Tadalafil, tadalafil] |  |  |  |  |  | 
